Results: patent US10945992B1, “Dosage forms of rofecoxib and related methods” (Tremeau Pharmaceuticals, Inc., priority 2019, dated 2021)
Where two headings read alike, the source gives them in different places.

Assay: TRM-201-PK-102 single-dose four-period crossover pharmacokinetic study, fasted healthy subjects
Format: in vivo, human
Conditions: human, plasma, oral
Procedure: A Single-Dose, Open-Label, Phase 1, Four-Period Crossover Pharmacokinetic Study of TRM-201 (Rofecoxib) 12.5 mg, 17.5 mg, 20 mg and 25 mg Administered to Healthy Subjects in a Fasting State, with Comparison to Historical Pharmacokinetic Parameters of Previously Marketed Rofecoxib (“TRM-201-PK-102” or “102 PK Study”)
This was a single-center, open-label four-period crossover PK study of TRM-201. The study included 24 subjects who received TRM-201 as a single dose of 12.5 mg, 17.5 mg, 20 mg and 25 mg to assess the PK of TRM-201 in healthy volunteers under fasted conditions. Subjects were randomized to one of four treatment sequences. The PK data from the current study along with the data from the TRM-201-PK-101 study (Example 4) was used to compare to historical pharmacokinetic parameters of previously marketed rofecoxib, all in a fasted state.
In each of the four dosing periods, subjects fasted overnight for at least 10 hours before study drug dosing. While fasting, subjects had nothing to eat and only water to drink. Water was permitted as desired, except for the period between 1 hour before and 1 hour after study drug dosing (excepting as permitted for dosing). After the 2-hour PK blood sample, subjects were allowed one 250-mL cup of clear apple juice. After the 4-hour PK blood sample, subjects were served a light lunch. Following the light lunch, subjects received standardized meals according to the clinic's standard procedures that were scheduled at consistent times and at least 15 minutes before or 15 minutes after PK sampling time points. Blood was withdrawn for PK analysis at predefined time points. For each dosing period the last time point was 120 hours after dosing with study drug (Day 6). After the 120 hour PK sample, the EOP procedures was completed, subjects remained in-clinic for the in-between dose period day (Days 7, 14, and 21) and began the next dosing period starting with an overnight fast for at least 10 hours on Day −1 of the subsequent dosing period. Pharmacokinetic and safety endpoints were evaluated.
The study drug, TRM-201, was an immediate-release tablet that contained 12.5 mg rofecoxib, 17.5 mg rofecoxib, 20 mg rofecoxib or 25 mg rofecoxib. The 7.25-mm diameter tablets were off-white, round, and uncoated with no markings. TRM-201 tablets were for oral administration.
For each sample, approximately 3 mL of blood were drawn. The samples were obtained by a straight stick or via an in-dwelling intravenous (IV) catheter in a forearm vein. Additional details for the collection, processing, storage, and shipping of PK samples were provided in the study manual.
Pharmacokinetic samples will be analyzed using a validated assay for rofecoxib in human plasma. Assay results and validation details will be provided in a separate bioanalytical report. The following PK parameters for rofecoxib will be calculated as primary endpoints using standard noncompartmental methods: AUC0-∞ and Cmax. Secondary endpoints include Tmax, and t1/2. Additional PK parameters (e.g., CL/F, and Vd/F) will also be calculated using standard noncompartmental methods.
Individual plasma concentrations for rofecoxib and PK sampling time deviation data will be presented in a data listing. Plasma concentration data will be summarized by time point using the following descriptive statistics: number of subjects, arithmetic mean, SD, coefficient of variation (CV), geometric mean, natural-log-scale SD, geometric CV, median, minimum, and maximum. Individual plasma concentration versus actual time profiles were presented on both linear and semilogarithmic scales. Additionally, arithmetic mean concentration versus scheduled time profiles were presented on linear scales and geometric means on semilogarithmic scales.
The PK parameters of rofecoxib were analyzed based on the actual sampling times. […]

[1] = 20 mg, read-out: arithmetic mean plasma concentration
[2] = 20 mg, read-out: geometric mean plasma concentration

Structure (SMILES): CS(=O)(=O)c1ccc(C2=C(c3ccccc3)C(=O)OC2)cc1 [TRM-201, 4-[4-(methylsulfonyl)phenyl]-3-phenyl-2(5H)-furanone]
- AUC(0-inf) (20 mg, 102 study only, read-out: arithmetic mean AUC0-∞): 3750 ng·h/mL
- Cmax (20 mg, 102 study only, read-out: arithmetic mean Cmax): 277 ng/mL
- AUC(0-inf) (20 mg, 102 study only, read-out: geometric mean AUC0-∞): 3550 ng·h/mL
- Cmax (20 mg, 102 study only, read-out: geometric mean Cmax): 259 ng/mL
- AUC(0-inf) (20 mg, 102 study, 18-40 years, read-out: arithmetic mean AUC0-∞): 3580 ng·h/mL
- Cmax (20 mg, 102 study, 18-40 years, read-out: arithmetic mean Cmax): 308 ng/mL
- AUC(0-inf) (20 mg, 102 study, 18-40 years, read-out: geometric mean AUC0-∞): 3420 ng·h/mL
- Cmax (20 mg, 102 study, 18-40 years, read-out: geometric mean Cmax): 289 ng/mL
- AUC(0-inf) (20 mg, 102 study, 41-52 years, read-out: arithmetic mean AUC0-∞): 3730 ng·h/mL
- Cmax (20 mg, 102 study, 41-52 years, read-out: arithmetic mean Cmax): 262 ng/mL
- AUC(0-inf) (20 mg, 102 study, 41-52 years, read-out: geometric mean AUC0-∞): 3360 ng·h/mL
- Cmax (20 mg, 102 study, 41-52 years, read-out: geometric mean Cmax): 242 ng/mL
- AUC(0-inf) (20 mg, 102 study, 53-60 years, read-out: arithmetic mean AUC0-∞): 3940 ng·h/mL
- Cmax (20 mg, 102 study, 53-60 years, read-out: arithmetic mean Cmax): 260 ng/mL
- AUC(0-inf) (20 mg, 102 study, 53-60 years, read-out: geometric mean AUC0-∞): 3880 ng·h/mL
- Cmax (20 mg, 102 study, 53-60 years, read-out: geometric mean Cmax): 249 ng/mL
- AUC(0-inf) (20 mg, 102 study, Black or African-American subjects, read-out: arithmetic mean AUC0-∞): 3380 ng·h/mL
- Cmax (20 mg, 102 study, Black or African-American subjects, read-out: arithmetic mean Cmax): 298 ng/mL
- AUC(0-inf) (20 mg, 102 study, Black or African-American subjects, read-out: geometric mean AUC0-∞): 3300 ng·h/mL
- Cmax (20 mg, 102 study, Black or African-American subjects, read-out: geometric mean Cmax): 295 ng/mL
- AUC(0-inf) (20 mg, 102 study, Hispanic or Latino subjects, read-out: arithmetic mean AUC0-∞): 3840 ng·h/mL
- Cmax (20 mg, 102 study, Hispanic or Latino subjects, read-out: arithmetic mean Cmax): 281 ng/mL
- AUC(0-inf) (20 mg, 102 study, Hispanic or Latino subjects, read-out: geometric mean AUC0-∞): 3630 ng·h/mL
- Cmax (20 mg, 102 study, Hispanic or Latino subjects, read-out: geometric mean Cmax): 258 ng/mL
- AUC(0-inf) (20 mg, 102 study, White subjects, read-out: arithmetic mean AUC0-∞): 3850 ng·h/mL
- Cmax (20 mg, 102 study, White subjects, read-out: arithmetic mean Cmax): 271 ng/mL
- AUC(0-inf) (20 mg, 102 study, White subjects, read-out: geometric mean AUC0-∞): 3610 ng·h/mL
- Cmax (20 mg, 102 study, White subjects, read-out: geometric mean Cmax): 250 ng/mL
- AUC(0-inf) (20 mg, 102 study, body weight 47-70 kg, read-out: arithmetic mean AUC0-∞): 3650 ng·h/mL
- Cmax (20 mg, 102 study, body weight 47-70 kg, read-out: arithmetic mean Cmax): 336 ng/mL
- AUC(0-inf) (20 mg, 102 study, body weight 47-70 kg, read-out: geometric mean AUC0-∞): 3340 ng·h/mL
- Cmax (20 mg, 102 study, body weight 47-70 kg, read-out: geometric mean Cmax): 307 ng/mL
- AUC(0-inf) (20 mg, 102 study, body weight 70.1-77 kg, read-out: arithmetic mean AUC0-∞): 4500 ng·h/mL
- Cmax (20 mg, 102 study, body weight 70.1-77 kg, read-out: arithmetic mean Cmax): 259 ng/mL
- AUC(0-inf) (20 mg, 102 study, body weight 70.1-77 kg, read-out: geometric mean AUC0-∞): 4400 ng·h/mL
- Cmax (20 mg, 102 study, body weight 70.1-77 kg, read-out: geometric mean Cmax): 248 ng/mL
- AUC(0-inf) (20 mg, 102 study, body weight 77.1-90 kg, read-out: arithmetic mean AUC0-∞): 3250 ng·h/mL
- Cmax (20 mg, 102 study, body weight 77.1-90 kg, read-out: arithmetic mean Cmax): 238 ng/mL
- AUC(0-inf) (20 mg, 102 study, body weight 77.1-90 kg, read-out: geometric mean AUC0-∞): 3170 ng·h/mL
- Cmax (20 mg, 102 study, body weight 77.1-90 kg, read-out: geometric mean Cmax): 231 ng/mL
- AUC(0-inf) (20 mg, 102 study, non-Hispanic or non-Latino subjects, read-out: arithmetic mean AUC0-∞): 3660 ng·h/mL
- Cmax (20 mg, 102 study, non-Hispanic or non-Latino subjects, read-out: arithmetic mean Cmax): 272 ng/mL
- AUC(0-inf) (20 mg, 102 study, non-Hispanic or non-Latino subjects, read-out: geometric mean AUC0-∞): 3470 ng·h/mL
- Cmax (20 mg, 102 study, non-Hispanic or non-Latino subjects, read-out: geometric mean Cmax): 260 ng/mL
- concentration at 15 minutes [1]: 5.75 ng/mL
- concentration at 15 minutes [2]: 1.16 ng/mL
- concentration at 45 minutes [1]: 121 ng/mL
- concentration at 45 minutes [2]: 72.6 ng/mL
- AUC(0-inf) (25 mg, 102 study only, read-out: arithmetic mean AUC0-∞): 4630 ng·h/mL
- Cmax (25 mg, 102 study only, read-out: arithmetic mean Cmax): 349 ng/mL
- AUC(0-inf) (25 mg, 102 study only, read-out: geometric mean AUC0-∞): 4490 ng·h/mL
- Cmax (25 mg, 102 study only, read-out: geometric mean Cmax): 341 ng/mL
- AUC(0-inf) (25 mg, 102 study, 18-40 years, read-out: arithmetic mean AUC0-∞): 4140 ng·h/mL
- Cmax (25 mg, 102 study, 18-40 years, read-out: arithmetic mean Cmax): 366 ng/mL
- AUC(0-inf) (25 mg, 102 study, 18-40 years, read-out: geometric mean AUC0-∞): 4050 ng·h/mL
- Cmax (25 mg, 102 study, 18-40 years, read-out: geometric mean Cmax): 356 ng/mL
- AUC(0-inf) (25 mg, 102 study, 41-52 years, read-out: arithmetic mean AUC0-∞): 4810 ng·h/mL
